The values that follow come from patent US9855230B2 (ViiV Healthcare UK (No. 5) Limited, priority 2014, dated 2018).

Counter-ions that a name gives are not always drawn. Like-named read-outs stand apart in the source and are kept apart here. Bounds are passed on as bounds.

For data set [1], the system named is recombinant NL4-3 virus (nef section replaced with Renilla luciferase gene) in MT-2 cells. In words: whole plant or invertebrate. In kind it is cell-based, HIV. To be noted: NL43, luciferase activity in MT-2 cells infected 4-5 days with recombinant NL4-3 virus. The essentials:
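Nef-deleted NL4-3 reporter virus carrying Renilla luciferase was used to infect MT-2 cells in the presence of serial compound dilutions. After 4-5 days of infection, antiviral activity was quantified from luciferase activity using a live-cell substrate.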

Data set [2] can be described thus: Compound cytotoxicity (CC50), XTT-based colorimetric assay. Type of data set: cell-based. To be noted: human; uninfected MT2 cells, day 4, XTT assay. The essentials:
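Run under the antiviral-assay protocol but without virus. Viability was read on day 4 and CC50 values were derived from the readout.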
(In general: Tetrazolium assays rely on reduction of a dye to a coloured formazan, in cell work by metabolically active cells.)

The CC50 is the concentration at which the toxic effect on the cells reaches its halfway point. As to `CCOc1ccc(-c2cccnc2[C@H](Cc2cc(F)cc(F)c2)NC(=O)NS(=O)(=O)c2ccccc2C)cc1F` [Example 123, (S)-N-((2-(3,5-difluorophenyl)-1-(3-(4-ethoxy-3-fluorophenyl)pyridin-2-yl)ethyl)carbamoyl)-2-methylbenzenesulfonamide, TFA], the EC50 in data set [1] (read-out: Activity) is 0.1 to 1 µM; in data set [1] (read-out: EC50), 0.6 µM. In addition, in data set [2], the CC50 at 4 day came out at 55 µM.

In the case of `CCOc1ccc(-c2cccnc2[C@@H](Cc2ccccc2)NC(=O)NS(=O)(=O)c2ccccc2C)cc1` [Example 105, (R)-N-((1-(3-(4-ethoxyphenyl)pyridin-2-yl)-2-phenylethyl)carbamoyl)-2-methylbenzenesulfonamide, TFA], the EC50 in data set [1] (read-out: Activity) is above 1 µM; in data set [1] (read-out: EC50), 16.7 µM. It took 75 µM to reach half-maximal cytotoxicity in data set [2] (CC50 at 4 day).

As for `COC(=O)Nc1ccc(-n2ccnc2[C@H](Cc2ccccc2)NC(=O)NS(=O)(=O)c2cccc(Cl)c2)cc1` [Example 54, (S)-methyl (4-(2-(1-(3-((3-chlorophenyl)sulfonyl)ureido)-2-phenylethyl)-1H-imidazol-1-yl)phenyl)carbamate], the values for the EC50 in data set [1] (read-out: Activity) and in data set [1] (read-out: EC50) were 0.1 to 1 µM and 0.15 µM, respectively. The compound also registered a 50% cytotoxic concentration (CC50) at 4 day in data set [2] above 100 µM.

Turning to `CCOC(=O)Nc1ccc(-n2ccnc2[C@H](Cc2ccccc2)NC(=O)NS(=O)(=O)c2ccccc2C)cc1` [Example 34, (S)-ethyl (4-(2-(2-phenyl-1-(3-(o-tolylsulfonyl)ureido)ethyl)-1H-imidazol-1-yl)phenyl)carbamate], the EC50 in data set [1] (read-out: Activity) is below 0.1 µM. In data set [2], this compound showed a CC50 at 4 day above 100 µM.

With `C=CCOc1cccc(-n2ccnc2[C@H](Cc2ccccc2)NC(=O)NS(=O)(=O)c2ccccc2C)c1` [Example 17, (S)-N-((1-(1-(3-(allyloxy)phenyl)-1H-imidazol-2-yl)-2-phenylethyl)carbamoyl)-2-methylbenzenesulfonamide], the EC50 in data set [1] (read-out: Activity) was in the range of 0.1 to 1 µM. In data set [2], this compound showed a CC50 at 4 day above 33 µM.

As for `O=C(N[C@@H](Cc1ccccc1)c1nccn1-c1ccc(-c2ccoc2)cc1)NS(=O)(=O)c1ccccc1F` [Example 64, (S)-2-fluoro-N-((1-(1-(4-(furan-3-yl)phenyl)-1H-imidazol-2-yl)-2-phenylethyl)carbamoyl)benzenesulfonamide], in data set [1] (read-out: Activity), the EC50 was below 0.1 µM. Also, the CC50 at 4 day in data set [2] was above 100 µM.

With `Cc1ccccc1S(=O)(=O)NC(=O)N[C@@H](Cc1ccccc1)c1nccn1-c1ccc(-c2cnn(C)c2)cc1` [Example 61, (S)-2-methyl-N-((1-(1-(4-(1-methyl-1H-pyrazol-4-yl)phenyl)-1H-imidazol-2-yl)-2-phenylethyl)carbamoyl)benzenesulfonamide], in data set [1] (read-out: Activity), the EC50 was below 0.1 µM. This compound returned a CC50 at 4 day in data set [2] above 33 µM.

Regarding `COc1ccccc1-n1ccnc1[C@H](Cc1ccccc1)NC(=O)NS(=O)(=O)c1ccccc1C` [Example 16, (S)-N-((1-(1-(2-methoxyphenyl)-1H-imidazol-2-yl)-2-phenylethyl)carbamoyl)-2-methylbenzenesulfonamide], the EC50 in data set [1] (read-out: Activity) was above 1 µM. This compound showed a CC50 at 4 day in data set [2] above 100 µM.

Regarding `COc1ccc(Cn2c(Br)cnc2[C@H](Cc2ccccc2)NC(=O)NS(=O)(=O)c2ccc(C)cc2)cc1` [Example 83, (S)-N-((1-(5-bromo-1-(4-methoxybenzyl)-1H-imidazol-2-yl)-2-phenylethyl)carbamoyl)-4-methylbenzenesulfonamide], the EC50 in data set [1] (read-out: Activity) is above 1 µM. In data set [2], the CC50 at 4 day was above 33 µM.

Regarding `O=C(NC(Cc1ccccc1)c1ncccc1-c1ccc2ccncc2c1)NS(=O)(=O)c1ccccc1Cl` (stereo in doubt) [Example 108, (S)-2-chloro-N-((1-(3-(isoquinolin-7-yl)pyridin-2-yl)-2-phenylethyl)carbamoyl)benzenesulfonamide, 2 TFA], the EC50 is above 1 µM in data set [1] (read-out: Activity) and 20 µM in data set [1] (read-out: EC50). The compound further returned a 50% cytotoxic concentration (CC50) at 4 day in data set [2] above 100 µM.

As for `Cc1ccccc1S(=O)(=O)NC(=O)N[C@@H](Cc1ccccc1)c1nccn1-c1ccc2scnc2c1` [Example 70, (S)-N-((1-(1-(benzo[d]thiazol-5-yl)-1H-imidazol-2-yl)-2-phenylethyl)carbamoyl)-2-methylbenzenesulfonamide], the EC50 in data set [1] (read-out: Activity) was below 0.1 µM. This compound came in with a CC50 at 4 day in data set [2] above 100 µM.

For `CCOc1ccc(-c2cccnc2[C@H](Cc2cc(F)cc(F)c2)NC(=O)NS(=O)(=O)c2ccccc2C)cc1` [Example 94, (S)-N-((2-(3,5-difluorophenyl)-1-(3-(4-ethoxyphenyl)pyridin-2-yl)ethyl)carbamoyl)-2-methylbenzenesulfonamide, TFA], in data set [1] (read-out: Activity), the EC50 fell in the range of 0.1 to 1 µM. In data set [2], this compound showed a CC50 at 4 day above 100 µM.

On to `Cc1ccccc1S(=O)(=O)NC(=O)N[C@@H](Cc1cc(F)cc(F)c1)c1ncccc1-c1ccc(CN(C)C)cc1` [Example 120, (S)-N-((2-(3,5-difluorophenyl)-1-(3-(4-((dimethylamino)methyl)phenyl)pyridin-2-yl)ethyl)carbamoyl)-2-methylbenzenesulfonamide, TFA], for which the EC50 was 0.1 to 1 µM in data set [1] (read-out: Activity) and 0.36 µM in data set [1] (read-out: EC50). In data set [2], this compound gave a CC50 at 4 day above 100 µM.

Take `COc1ccc(-n2ccnc2[C@H](Cc2ccccc2)NC(=O)NS(=O)(=O)c2cccc(Cl)c2Cl)cc1` [Example 56, (S)-2,3-dichloro-N-((1-(1-(4-methoxyphenyl)-1H-imidazol-2-yl)-2-phenylethyl)carbamoyl)benzenesulfonamide]: the EC50 in data set [1] (read-out: Activity) was below 0.1 µM. This compound had a CC50 at 4 day in data set [2] above 100 µM.

For the compound `Cc1ccccc1S(=O)(=O)NC(=O)N[C@@H](Cc1cc(F)cc(F)c1)c1ncccc1-c1cncc(F)c1` [Example 100, (S)-N-((2-(3,5-difluorophenyl)-1-(5′-fluoro-[3,3′-bipyridin]-2-yl)ethyl)carbamoyl)-2-methylbenzenesulfonamide, 2 TFA], the EC50 in data set [1] (read-out: Activity) was above 1 µM. Also, in data set [2], the CC50 at 4 day was above 100 µM.

Regarding `Cc1ccccc1S(=O)(=O)NC(=O)NC(Cc1ccccc1)c1ncccc1Br` (centres unmarked) [Example 116, N-((1-(3-bromopyridin-2-yl)-2-phenylethyl)carbamoyl)-2-methylbenzenesulfonamide, TFA], the EC50 in data set [1] (read-out: Activity) was above 1 µM. The CC50 at 4 day in data set [2] is above 100 µM.

For `NC(=O)c1cc(-c2cccnc2[C@H](Cc2cc(F)cc(F)c2)NC(=O)NS(=O)(=O)c2ccccc2Cl)ccc1F` [Example 95, (S)-5-(2-(1-(3-((2-chlorophenyl)sulfonyl)ureido)-2-(3,5-difluorophenyl)ethyl)pyridin-3-yl)-2-fluorobenzamide, TFA], the EC50 in data set [1] (read-out: Activity) lay within 0.1 to 1 µM. Moreover, in data set [2], the CC50 at 4 day is above 100 µM.

For the compound `Cc1ccccc1S(=O)(=O)NC(=O)N[C@@H](Cc1ccccc1)c1nccn1-c1ccc(Br)cc1` [Example 15, (S)-N-((1-(1-(4-bromophenyl)-1H-imidazol-2-yl)-2-phenylethyl)carbamoyl)-2-methylbenzenesulfonamide], the results for the EC50 in data set [1] (read-out: Activity) and in data set [1] (read-out: EC50) were 0.1 to 1 µM and 0.19 µM, respectively. In data set [2], this compound gave a CC50 at 4 day above 100 µM.

With `COc1ccc(-n2ccnc2[C@H](Cc2ccccc2)NC(=O)NS(=O)(=O)c2ccccc2C)cc1` [Example 1, (S)-N-((1-(1-(4-methoxyphenyl)-1H-imidazol-2-yl)-2-phenylethyl)carbamoyl)-2-methylbenzene-sulfonamide], the EC50 in data set [1] (read-out: Activity) is below 0.1 µM. This compound also displayed a CC50 at 4 day in data set [2] above 100 µM.

Take `COC(=O)Nc1ccc(-n2ccnc2[C@H](Cc2ccccc2)NC(=O)NS(=O)(=O)c2ccccc2OC)cc1` [Example 44, (S)-methyl (4-(2-(1-(3-((2-methoxyphenyl)sulfonyl)ureido)-2-phenylethyl)-1H-imidazol-1-yl)phenyl)carbamate]: the EC50 in data set [1] (read-out: Activity) is below 0.1 µM. Moreover, the CC50 at 4 day in data set [2] is above 100 µM.

Consider `Cc1ccccc1S(=O)(=O)NC(=O)N[C@H](Cc1ccccc1)c1ncccc1Br` [Example 112, (R)-N-((1-(3-bromopyridin-2-yl)-2-phenylethyl)carbamoyl)-2-methylbenzenesulfonamide, TFA], for which, in data set [1] (read-out: Activity), the EC50 is above 1 µM. This compound also returned a CC50 at 4 day in data set [2] above 100 µM.

For the compound `CC(C)(C)OC(=O)n1cc(-c2cccnc2[C@@H](Cc2cc(F)cc(F)c2)NC(=O)NS(=O)(=O)c2ccccc2Cl)c2ccccc21` [Example 101, (R)-tert-butyl 3-(2-(1-(3-((2-chlorophenyl)sulfonyl)ureido)-2-(3,5-difluorophenyl)ethyl)pyridin-3-yl)-1H-indole-1-carboxylate, TFA], the EC50 in data set [1] (read-out: Activity) was above 1 µM. In data set [2], this compound gave a CC50 at 4 day of 36 µM.

On to `COC(=O)Nc1ccc(-n2ccnc2[C@H](Cc2ccccc2)NC(=O)NS(=O)(=O)c2ccc(C)cc2)cc1` [Example 38, (S)-methyl (4-(2-(2-phenyl-1-(3-tosylureido)ethyl)-1H-imidazol-1-yl)phenyl)carbamate], for which, in data set [1] (read-out: Activity), the EC50 was 0.1 to 1 µM. The compound further yielded a half-maximal cytotoxic concentration (CC50) at 4 day in data set [2] above 100 µM.

Take `CCCOc1ccc(-n2ccnc2[C@H](Cc2ccccc2)NC(=O)NS(=O)(=O)c2ccccc2C)cc1Cl` [Example 25, (S)-N-((1-(1-(3-chloro-4-propoxyphenyl)-1H-imidazol-2-yl)-2-phenylethyl)carbamoyl)-2-methylbenzenesulfonamide]: the EC50 in data set [1] (read-out: Activity) was below 0.1 µM. The CC50 at 4 day in data set [2] amounted to 50 µM.

Regarding `Cc1ccccc1S(=O)(=O)NC(=O)N[C@@H](Cc1ccccc1)c1nccn1-c1cnn(Cc2ccccc2)c1` [Example 81, (S)-N-((1-(1-(1-benzyl-1H-pyrazol-4-yl)-1H-imidazol-2-yl)-2-phenylethyl)carbamoyl)-2-methylbenzenesulfonamide], the EC50 in data set [1] (read-out: Activity) was 0.1 to 1 µM; in data set [1] (read-out: EC50), 0.55 µM. Further, the CC50 at 4 day in data set [2] was above 100 µM.

`COC(=O)Nc1ccc(-n2ccnc2[C@H](Cc2ccccc2)NC(=O)NS(=O)(=O)c2ccccc2)cc1` [Example 37, (S)-methyl (4-(2-(2-phenyl-1-(3-(phenylsulfonyl)ureido)ethyl)-1H-imidazol-1-yl)phenyl)carbamate]: the EC50 in data set [1] (read-out: Activity) fell in the range of 0.1 to 1 µM. The compound also had a CC50 at 4 day in data set [2] above 33 µM.
